#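 Test compounds were applied to cells in 96-well plates for 48 hours at 5 doses. GI50 is the concentration that inhibits growth by half. TGI marks complete inhibition of growth.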
# How the values were obtained:
# Assay in all cases: NCI tumour cell line growth inhibition, 48 h
# NCI-H460 lung = system: NCI-H460 lung
# SNB-19 CNS = system: SNB-19 CNS
# NCI-H522 lung = system: NCI-H522 lung
# A549 NSCLC = system: A549 NSCLC
# UACC-257 melanoma = system: UACC-257 melanoma
# TK-10 renal = system: TK-10 renal
# MDA-MB-231 breast = system: MDA-MB-231 breast
# MCF7 breast = system: MCF7 breast
# DU-145 prostate = system: DU-145 prostate
# CAKI-1 renal = system: CAKI-1 renal
# SK-MEL-2 melanoma = system: SK-MEL-2 melanoma
# HS 578T breast = system: HS 578T breast
# IGROV1 ovarian = system: IGROV1 ovarian
# A498 renal = system: A498 renal
# SN12C renal = system: SN12C renal
# 786-0 renal = system: 786-0 renal
# RPMI-8226 leukemia = system: RPMI-8226 leukemia
# HCT-15 colon = system: HCT-15 colon
# UACC-62 melanoma = system: UACC-62 melanoma
# COLO 205 colon = system: COLO 205 colon
# SR leukemia = system: SR leukemia
# OVCAR-3 ovarian = system: OVCAR-3 ovarian
# SF-268 CNS = system: SF-268 CNS
# NCI-H23 lung = system: NCI-H23 lung
# MOLT-4 leukemia = system: MOLT-4 leukemia
# NCI-H226 lung = system: NCI-H226 lung
# SF-295 CNS = system: SF-295 CNS
# SNB-75 CNS = system: SNB-75 CNS
# K-562 leukemia = system: K-562 leukemia
# T-47D breast = system: T-47D breast
# RXF 393 renal = system: RXF 393 renal
# UO-31 renal = system: UO-31 renal
# KM12 colon = system: KM12 colon
# ACHN renal = system: ACHN renal
# PC-3 prostate = system: PC-3 prostate
# SW-620 colon = system: SW-620 colon
# SF-539 CNS = system: SF-539 CNS
# OVCAR-5 ovarian = system: OVCAR-5 ovarian
# EKVX NSCLC = system: EKVX NSCLC
# CCRF-CEM leukemia = system: CCRF-CEM leukemia
# MDA-MB-468 breast = system: MDA-MB-468 breast
# SK-MEL-5 melanoma = system: SK-MEL-5 melanoma
# HCT-116 colon = system: HCT-116 colon
# M14 melanoma = system: M14 melanoma
# MALME-3M melanoma = system: MALME-3M melanoma
# HCC-2998 colon = system: HCC-2998 colon
# HOP-62 NSCLC = system: HOP-62 NSCLC
# BT-549 breast = system: BT-549 breast
# OVCAR-4 ovarian = system: OVCAR-4 ovarian
# SK-MEL-28 melanoma = system: SK-MEL-28 melanoma
# OVCAR-8 ovarian = system: OVCAR-8 ovarian
# HL-60(TB) leukemia = system: HL-60(TB) leukemia
# U251 CNS = system: U251 CNS
# HT29 colon = system: HT29 colon
# LOX IMVI melanoma = system: LOX IMVI melanoma
# SK-OV-3 ovarian = system: SK-OV-3 ovarian
# HOP-92 NSCLC = system: HOP-92 NSCLC
smiles,measurement,setting,value
Oc1ccc(/C=C2\CCCc3cc4ccc(O)cc4[o+]c32)c(O)c1,GI50,NCI-H460 lung,5.14 µM
same,TGI,NCI-H460 lung,42.2 µM
same,GI50,SNB-19 CNS,24.9 µM
same,TGI,SNB-19 CNS,> 100 µM
same,GI50,NCI-H522 lung,2.51 µM
same,TGI,NCI-H522 lung,11.2 µM
same,GI50,A549 NSCLC,44.2 µM
same,TGI,A549 NSCLC,> 100 µM
same,GI50,UACC-257 melanoma,15.3 µM
same,TGI,UACC-257 melanoma,> 100 µM
same,GI50,TK-10 renal,47.2 µM
same,TGI,TK-10 renal,> 100 µM
same,GI50,MDA-MB-231 breast,3.99 µM
same,TGI,MDA-MB-231 breast,33.1 µM
same,GI50,MCF7 breast,2.68 µM
same,TGI,MCF7 breast,70.8 µM
same,GI50,DU-145 prostate,22.2 µM
same,TGI,DU-145 prostate,> 100 µM
same,GI50,CAKI-1 renal,5.25 µM
same,TGI,CAKI-1 renal,> 100 µM
same,GI50,SK-MEL-2 melanoma,12.2 µM
same,TGI,SK-MEL-2 melanoma,58.6 µM
same,GI50,HS 578T breast,2.68 µM
same,TGI,HS 578T breast,> 100 µM
same,GI50,IGROV1 ovarian,18.9 µM
same,TGI,IGROV1 ovarian,78.1 µM
same,GI50,A498 renal,> 100 µM
same,TGI,A498 renal,> 100 µM
same,GI50,SN12C renal,29.9 µM
same,TGI,SN12C renal,> 100 µM
same,GI50,786-0 renal,8.21 µM
same,TGI,786-0 renal,> 100 µM
same,GI50,RPMI-8226 leukemia,4.93 µM
same,TGI,RPMI-8226 leukemia,> 100 µM
same,GI50,HCT-15 colon,3.27 µM
same,TGI,HCT-15 colon,11.2 µM
same,GI50,UACC-62 melanoma,5.02 µM
same,TGI,UACC-62 melanoma,26 µM
same,GI50,COLO 205 colon,15.2 µM
same,TGI,COLO 205 colon,44.5 µM
same,GI50,SR leukemia,3.09 µM
same,TGI,SR leukemia,> 100 µM
same,GI50,OVCAR-3 ovarian,3.39 µM
same,TGI,OVCAR-3 ovarian,14.7 µM
same,GI50,SF-268 CNS,6.81 µM
same,TGI,SF-268 CNS,> 100 µM
same,GI50,NCI-H23 lung,11.7 µM
same,TGI,NCI-H23 lung,> 100 µM
same,GI50,MOLT-4 leukemia,3.06 µM
same,TGI,MOLT-4 leukemia,> 100 µM
same,GI50,NCI-H226 lung,26.6 µM
same,TGI,NCI-H226 lung,> 100 µM
same,GI50,SF-295 CNS,19.7 µM
same,TGI,SF-295 CNS,> 100 µM
same,GI50,SNB-75 CNS,2.88 µM
same,TGI,SNB-75 CNS,65.6 µM
same,GI50,K-562 leukemia,4.03 µM
same,TGI,K-562 leukemia,> 100 µM
same,GI50,T-47D breast,5.23 µM
same,TGI,T-47D breast,> 100 µM
same,GI50,RXF 393 renal,2.26 µM
same,TGI,RXF 393 renal,10.8 µM
same,GI50,UO-31 renal,7.23 µM
same,TGI,UO-31 renal,59.9 µM
same,GI50,KM12 colon,3.3 µM
same,TGI,KM12 colon,13.7 µM
same,GI50,ACHN renal,6.1 µM
same,TGI,ACHN renal,> 100 µM
same,GI50,PC-3 prostate,4.09 µM
same,TGI,PC-3 prostate,> 100 µM
same,GI50,SW-620 colon,3.87 µM
same,TGI,SW-620 colon,69.2 µM
same,GI50,SF-539 CNS,7.04 µM
same,TGI,SF-539 CNS,42 µM
same,GI50,OVCAR-5 ovarian,53.1 µM
same,TGI,OVCAR-5 ovarian,> 100 µM
same,GI50,EKVX NSCLC,8.82 µM
same,TGI,EKVX NSCLC,> 100 µM
same,GI50,CCRF-CEM leukemia,3.56 µM
same,TGI,CCRF-CEM leukemia,> 100 µM
same,GI50,MDA-MB-468 breast,1.99 µM
same,TGI,MDA-MB-468 breast,6.46 µM
same,GI50,SK-MEL-5 melanoma,5.74 µM
same,TGI,SK-MEL-5 melanoma,19.9 µM
same,GI50,HCT-116 colon,3.82 µM
same,TGI,HCT-116 colon,> 100 µM
same,GI50,M14 melanoma,6.7 µM
same,TGI,M14 melanoma,> 100 µM
same,GI50,MALME-3M melanoma,4.77 µM
same,TGI,MALME-3M melanoma,40.3 µM
same,GI50,HCC-2998 colon,6.29 µM
same,TGI,HCC-2998 colon,20.4 µM
same,GI50,HOP-62 NSCLC,44.2 µM
same,TGI,HOP-62 NSCLC,> 100 µM
same,GI50,BT-549 breast,5.75 µM
same,TGI,BT-549 breast,> 100 µM
same,GI50,OVCAR-4 ovarian,16.5 µM
same,TGI,OVCAR-4 ovarian,> 100 µM
same,GI50,SK-MEL-28 melanoma,12.3 µM
same,TGI,SK-MEL-28 melanoma,52.4 µM
same,GI50,OVCAR-8 ovarian,6.91 µM
same,TGI,OVCAR-8 ovarian,> 100 µM
same,GI50,HL-60(TB) leukemia,2.65 µM
same,TGI,HL-60(TB) leukemia,57.3 µM
same,GI50,U251 CNS,4.16 µM
same,TGI,U251 CNS,41.3 µM
same,GI50,HT29 colon,17.9 µM
same,TGI,HT29 colon,46.6 µM
same,GI50,LOX IMVI melanoma,2.95 µM
same,TGI,LOX IMVI melanoma,12.5 µM
same,GI50,SK-OV-3 ovarian,27.2 µM
same,TGI,SK-OV-3 ovarian,> 100 µM
same,GI50,HOP-92 NSCLC,6.43 µM
same,TGI,HOP-92 NSCLC,> 100 µM

# — PubChem BioAssay (NCI)
